Patent US20030152523A1, “Pharmaceutical composition for pulmonary delivery” (priority 2000, published 2003)

Key:
[1] = In-vitro deposition of BDP from dry powder formulations aerosolised via Rotahaler into a twin stage impinger (TSI); type: physicochemical; settings: TSI at 60 L/min, drug in lower stage of TSI
Source text: It was the aim of the current study to attempt to reduce the hydrophobic interaction that exists between BDP particles. Such interaction induces aggregate formation and potentially limits the fine particle dose available for pulmonary delivery. The objectives were to adsorb hydrophilic polymer to individual drug particles and to prepare a model dry powder formulation containing modified drug and lactose. A suspension of 1% w/v BDP in water containing either 0.05% or 0.1% PVA ((MWt 9-10 kDA) was spray dried to produce particles (volume mean diameter (VMD) 4.2 μm as determined by an Aerosizer time of flight particle sizing apparatus obtained from Amherst Process Instruments, Hadley, Mass., USA) suitable for intended delivery to the lung. The micronised drug (VMD […]) or spray dried drug was blended with lactose in a ratio 1:67.5 parts by weight and the resultant formulations filled into gelatin capsules for arosolisation via a Rotahaler device to a twin stage impinger (TSI) operated at 60 L min^−1. The Fine Particle Dose (FPD) (as determined from by the amount of drug reaching the lower stage of the TSI) was increased from 20.2 μg when micronised drug was employed to 46.7 μg when the lower PVA concentration was employed. […] The concentration of BDP was determined from calibration curves constructed using the standard solutions of BDP. […]

[2] = Particle size analysis by laser diffraction (Malvern 2600); type: physicochemical; settings: BDP dispersed in 1% (w/v) span 85 in cyclohexane
Experimental: 3 Particle Size Analysis:
The particle size of both micronised BDP and spray dried BDP was determined in a liquid medium by laser diffraction, according to an independent model, using a Malvern 2600 laser diffraction sizer (Malvern Instruments, Malvern, Worcs, UK). BDP was measured using a 63 mm lens, after dispersion in a solution of 1% (w/v) span 85 in cyclohexane, saturated with the drug. Each sample was measured in triplicate.

Fine particle dose (FPD) of BDP [1]: 20.2 µg
Volume mean diameter VMD(GSD) [2]: 5.18 (1.00) μm
SMILES: CCC(=O)OCC(=O)[C@@]1(OC(=O)CC)[C@@H](C)C[C@H]2[C@@H]3CCC4=CC(=O)C=C[C@]4(C)[C@@]3(Cl)[C@@H](O)C[C@@]21C [micronised BDP, beclomethasone dipropionate]
